In US8372889B2, “Methods for modulating metabolism” (Omega Biopharma (I.P.3) Limited, priority 2004, dated 2013):
Where a name gives a salt, the structure may show the parent alone.

Legend:
[1] = tested on: Goto-Kakizaki Wistar rats (GK rats); experiment: Oral glucose tolerance test and starving plasma glucose in GK rats (Example 1); conditions: oral Metformin alone
Protocol: Nineteen male Goto-Kakizaki Wistar rats (GK rats) with weights of 300±20 g were kept in steel cages, 3-4 rats per cage. The cages were changed every two days. Indoor temperature and relative humidity was kept at 23±3° . and 65±1% respectively. Feed and drinking water was provided. GK rats were permitted a one-month period for adaptation.
One day prior to experimentation, at 17:00, all of the feed was removed from all groups, but not the drinking water. On the second day, at 09:30, starving plasma glucose was measured for all GK rats. At 10:00, glucose tolerance test (2 g/kg BW) was performed and the plasma glucose level was measured as well for all GK rats. […] On the ninth day, starving plasma glucose was measured and oral glucose tolerance test was performed again for all GK rats in all groups. […]
Six days following the change in regimen, starving plasma glucose was measured and glucose tolerance tests were performed, and blood and tissue samples were collected (liver, duodenum, pancreas gland, fat, and muscle) for all GK rats in all groups. […]
The glucose tolerance tests that were performed included the steps of starving the GK rats overnight. Next day at 09:30, starving plasma glucose was measured. […]

GK diabetic rats [2] = experiment: Plasma insulin and adiponectin in GK diabetic rats (Example 3); format: in vivo, rat
Protocol: (§1) Thirty-six Goto-Kakizaki Wistar (GK) rats (purchased from Shanghai Slaccas Laboratory Animal Center) aged about 13 weeks and weighting 321-323 g were acclimated to the animal facility for two weeks in individual cages. Food and water were provided ad libitum.
(§2) The 36 GK rats were divided into 4 groups based on body weight (BW) and plasma glucose level. Group 1 (control, n=10) was treated with saline by gavage (2 ml/rat); Group 2 (DC, n=6) was treated with cysteamine hydrochloride by gavage (22.5 mg/kg BW in 2 ml tap water); Group 3 (Metformin, Met, n=10) was treated with Metformin by gavage (34 mg/kg BW in 2 ml tap water); Group 4 (Met+DC, n=10) was treated with Metformin 34 mg/kg BW/day in 2 ml tap water for the first 10 days and then was treated with both cysteamine hydrochloride 22.5 mg/kg BW plus Metformin 34 mg/kg BW in 2 ml tap water for the second 10 days. All animals were treated at 10:00 for 20 days.
The four groups of animals were kept in the same room (temp 23±3° ., relative humidity 65±1%) in different cages with wire mesh bottoms to reduce coprophagia throughout the experiment. The rats were subjected to fasting overnight from 22:00 to 9:30 of the following day before being subjected to a glucose tolerance test. The rats were treated with glucose 2 g/kg BW in 2 ml tap water at 9:30 for the glucose tolerance test and the blood was collected from the tail vein at 0.5 hr, 1 hr, 2 hr, and 3 hr after glucose injection. Plasma glucose concentrations were determined by Glucotrendr2 equipment (Roche Diagnostics, Basel, Switzerland). Plasma insulin concentrations were determined by radioimmunoassay (Insulin RIA Kit, NO:0410, purchased from Shanghai Radioimmunoassay Research Institution).

diabetic patients = experiment: Open-label, randomized trial in diabetes type II patients (Example 4); conditions: for 24 h Microalbuminuria, Pre-treatment / FBS (fasting blood sugar), Pre-treatment / FCP (C peptide), Pre-treatment / FINS (fasting insulin), Pre-treatment / HOMA (Homeostasis Model Assessment), Pre-treatment / IGF, Pre-treatment / UA (blood uric acid), Pre-treatment: baseline before the trial treatment
Protocol: A small open-label, randomized trial was carried out at the national reference center for diabetes in China. Sixty patients of both sexes (ages ranged from 30 to 75 years old) diagnosed with diabetes type II were recruited. All subjects were informed and gave their consent to participate. Diabetes was diagnosed based on the WHO criteria set in 1999. […] Patients with the following conditions were excluded from the study: (1) dysfunction of heart, liver and/or kidney; (2) with acute diabetic complications and/or any acute cardiovascular complications or other chronic diseases in the past three months; and (3) pregnancy or nursing.
Patients were divided randomly into four groups of 15 patients each. A control group of subjects was not administered anti-diabetic drugs. The cysteamine alone (DC) group was treated with 540 mg/day of cysteamine hydrochloride. In the Metformin alone (Met) group, the dose of Metformin remained unchanged during the two months period. For the DC+Met group, patients remained on the same dose of Metformin they were originally administered, including an additional 100 mg/day of cysteamine hydrochloride. All patients were subjected to treatments for two months and samples were collected and measured at the beginning of, one month after, and two month after the trial for analysis. The results described herein are derived from the samples collected and measured at the beginning of the first month after the trial.

glut 4 = glut 4 expression in different tissues of GK diabetic rats (Example 3); format: in vivo, rat; conditions: liver, muscles, adipocytes
Protocol: Thirty-six Goto-Kakizaki Wistar (GK) rats (purchased from Shanghai Slaccas Laboratory Animal Center) aged about 13 weeks and weighting 321-323 g were acclimated to the animal facility for two weeks in individual cages. Food and water were provided ad libitum. The 36 GK rats were divided into 4 groups based on body weight (BW) and plasma glucose level. […] Group 2 (DC, n=6) was treated with cysteamine hydrochloride by gavage (22.5 mg/kg BW in 2 ml tap water); […] All animals were treated at 10:00 for 20 days.

GK diabetic rats [3] = experiment: Glucose tolerance test in GK diabetic rats (Example 3); format: in vivo, rat
Protocol: as §1, §2
The four groups of animals were kept in the same room (temp 23±3° ., relative humidity 65±1%) in different cages with wire mesh bottoms to reduce coprophagia throughout the experiment. […] Plasma glucose concentrations were determined by Glucotrendr2 equipment (Roche Diagnostics, Basel, Switzerland). Plasma insulin concentrations were determined by radioimmunoassay (Insulin RIA Kit, NO:0410, purchased from Shanghai Radioimmunoassay Research Institution).

fat-feed rats = experiment: Lipids, free fatty acid and uric acid in fat-feed rats (Example 5); format: in vivo, rat; conditions: for CH / FFA / HDL / LDL / TG / UA: Mean + STD
normal Wistar rats = experiment: Fasting plasma glucose and insulin in normal Wistar rats (Example 2); format: in vivo, rat; conditions: for Fasting glucose / Fasting insulin: normal Wistar rats, Mean ± STD
Protocol: Thirty-two male Wistar rats (purchased from Shanghai Slaccas Laboratory Animal Center) aged about 13 weeks and weighting around 300 g were acclimated to the animal facility for two weeks in individual cages. Food and water were provided ad libitum. The Wistar rats were divided randomly into 4 groups and each group contained 8 rats. […] All animals were treated at 10:00 for 27 days. The four groups of animals were kept in the same room in different cages with wire mesh bottoms to reduce coprophagia throughout the experiment. […] Plasma glucose concentrations were determined by Glucotrendr2 equipment (Roche Diagnostics, Basel, Switzerland). Plasma insulin concentrations were determined by radioimmunoassay (Insulin RIA Kit, NO:0410, purchased from Shanghai Radioimmunoassay Research Institution). The abbreviation STD denotes the variability of the data about the mean or “standard deviation.” The abbreviation p denotes the level of significance of the results.

[4] = doses of 11.25 mg/kg and 22.5 mg/kg
[5] = DC15: 15 mg/kg BW by gavage for 27 days
[6] = DC22.5: 22.5 mg/kg BW by gavage for 27 days
[7] = DC30: 30 mg/kg BW by gavage for 27 days
[8] = normal, fasting Wistar rats, 15-30 mg/kg BW

CN(C)C(=N)N=C(N)N [Metformin, reference compound]
duodenal plasma glucose levels and insulin resistance (in words) [1]: to some extent, lowers | insulin levels (in words) (GK diabetic rats [2]): decreased, but not statistically significant | insulin-like growth factor 1 (IGF1) (in words) (diabetic patients): only a decrease | 24 h Microalbuminuria, Pre-treatment (diabetic patients): 27.5 ± 23.69 | FBS (fasting blood sugar), Pre-treatment (diabetic patients): 8.92 ± 2.7 | FCP (C peptide), Pre-treatment (diabetic patients): 579 ± 212 | FINS (fasting insulin), Pre-treatment (diabetic patients): 19.35 ± 10.2 | HOMA (Homeostasis Model Assessment), Pre-treatment (diabetic patients): 7.33 ± 3.3 | IGF, Pre-treatment (diabetic patients): 52.81 ± 10.04 | UA (blood uric acid), Pre-treatment (diabetic patients): 320 ± 67 | expression of total glut4 (in words) (glut 4): increased, but not significantly

NCCS [cysteamine hydrochloride]
Glucose tolerance test, plasma glucose, 2 hr (GK diabetic rats [3]; gavage DC 22.5 mg/kg BW, Metformin 34 mg/kg BW, 20 days, Met+DC: DC added for second 10 days, after glucose 2 g/kg BW, Mean ± STD): 11.00 ± 0.8 mmol/L | glucose levels (in words) (GK diabetic rats [3]; glucose tolerance test, combination compared with Metformin alone, all time points except Fasting): did not affect | adiponectin (in words) (GK diabetic rats [2]): significantly increased | insulin levels (in words) (GK diabetic rats [2]): did not affect | C peptide (CP) (in words) (diabetic patients): decreases significantly | HOMA (Homeostasis Model Assessment) (in words) (diabetic patients): decreases significantly | blood uric acid (UA) levels (in words) (diabetic patients): decreases significantly | fasting insulin (FINS) (in words) (diabetic patients): decreases significantly | insulin-like growth factor 1 (IGF1) (in words) (diabetic patients): decreases significantly | microalbuminuria (in words) (diabetic patients): obvious but not statistically significantly | 24 h Microalbuminuria, Pre-treatment (diabetic patients): 42.73 ± 31.33 | FBS (fasting blood sugar), Pre-treatment (diabetic patients): 7.52 ± 1.57 | FCP (C peptide), Pre-treatment (diabetic patients): 739 ± 183 | FINS (fasting insulin), Pre-treatment (diabetic patients): 35.39 ± 14.43 | HOMA (Homeostasis Model Assessment), Pre-treatment (diabetic patients): 11.94 ± 4.62 | IGF, Pre-treatment (diabetic patients): 49.36 ± 5.75 | UA (blood uric acid), Pre-treatment (diabetic patients): 389 ± 50.98 | LDL (in words) (fat-feed rats): decrease LDL but not significantly | CH (fat-feed rats; DC11.25: 11.25 mg/kg): 1.6 ± 0.31 mmol/L | FFA (fat-feed rats; DC11.25: 11.25 mg/kg): 842 ± 256 µmol/L | HDL (fat-feed rats; DC11.25: 11.25 mg/kg): 1.11 ± 0.16 mmol/L | LDL (fat-feed rats; DC11.25: 11.25 mg/kg): 0.61 ± 0.18 mmol/L | TG (fat-feed rats; DC11.25: 11.25 mg/kg): 1.15 ± 0.12 mmol/L | UA (fat-feed rats; DC11.25: 11.25 mg/kg): 17.41 ± 1.99 mg/L | CH (fat-feed rats; DC22.5: 22.5 mg/kg): 1.55 ± 0.27 mmol/L | FFA (fat-feed rats; DC22.5: 22.5 mg/kg): 1087 ± 181 µmol/L | HDL (fat-feed rats; DC22.5: 22.5 mg/kg): 1.04 ± 0.09 mmol/L | LDL (fat-feed rats; DC22.5: 22.5 mg/kg): 0.63 ± 0.18 mmol/L | TG (fat-feed rats; DC22.5: 22.5 mg/kg): 1.1 ± 0.08 mmol/L | UA (fat-feed rats; DC22.5: 22.5 mg/kg): 16.12 ± 1.04 mg/L | free fatty acid (in words) (fat-feed rats; at doses indicated): significantly decrease | uric acid (in words) (fat-feed rats; at doses indicated): significantly decrease | cholesterol levels (in words) (fat-feed rats; [4]): can decrease | triglyceride levels (in words) (fat-feed rats; [4]): can decrease | HDL (in words) (fat-feed rats; not significantly): trend that cysteamine can increase HDL | Fasting glucose (normal Wistar rats; [5]): 4.05 ± 0.23 | Fasting insulin (normal Wistar rats; [5]): 48.82 ± 3.27 | Fasting glucose (normal Wistar rats; [6]): 3.94 ± 0.27 | Fasting insulin (normal Wistar rats; [6]): 48.39 ± 2.38 | Fasting glucose (normal Wistar rats; [7]): 3.95 ± 0.17 | Fasting insulin (normal Wistar rats; [7]): 51.32 ± 2.94 | blood glucose levels (in words) (normal Wistar rats; [8]): dose-dependent effect on lowering | blood insulin levels (in words) (normal Wistar rats; [8]): does not affect | expression of total glut4 (in words) (glut 4): significantly increase
